In article PMC6332026, “Synthesis and Pharmacochemistry of New Pleiotropic Pyrrolyl Derivatives” (Molecules, 2015):

Legend:
[1] = biological target: T1, trypsin (Bos taurus, UniProt P00760); experiment: Inhibition of the proteolytic activity of trypsin; format: biochemical; settings: bovine albumin substrate, pH 7.6; read-out: TP IC50 (inhibition of trypsin)
T1 construct: purchased Sigma Chemical, Co. (St. Louis, MO, USA); host or cells: bovine pancreas
T1 sequence (P00760 24-246): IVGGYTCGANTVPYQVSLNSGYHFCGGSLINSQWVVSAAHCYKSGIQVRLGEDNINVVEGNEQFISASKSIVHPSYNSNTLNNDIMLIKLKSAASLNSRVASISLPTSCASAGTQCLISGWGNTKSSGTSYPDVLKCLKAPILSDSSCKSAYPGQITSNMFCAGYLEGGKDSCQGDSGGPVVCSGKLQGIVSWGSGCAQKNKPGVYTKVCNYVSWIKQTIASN
Text: Trypsin is an enzyme with an active role in inflammation. Thus, we studied the anti-proteolytic ability of the pyrrole derivatives, using salicylic acid as a reference compound. […] Comparing Compounds 2iv and 2v, the insertion of an electron-acceptor substituent (Cl) on the phenyl ring (substituent Ar^2) and the simultaneous increase of the volume of substituent Ar^2 (expressed as molar refractivity) led to an enhancement of the anti-proteolytic activity.
Carrageenan, type K, was commercially available. Cycloxygenase-2 (COX-2) and interleukin-6 (IL-6) EIA Kit, Item No. 583371 were purchased from Cayman. Trolox was obtained from Aldrich Chemical Co. (Milwaukee, WI, USA). All starting materials were obtained from commercial sources, and they were used without further purification.
The tested compounds (concentrations varying from 10 μΜ–100 μΜ in DMSO) were dissolved in a phosphate buffer (0.1 M K2HPO4–NaH2PO4·2H2O, pH = 7.6), and 0.2 mL of trypsin 0.075 mg/mL were added. The mixture was incubated at room temperature for 20 min, and then, 1 mL of bovine albumin (6 g/100 mL) was added. The mixture was incubated at 37 °C for 30 min. The reaction was stopped with the addition of 1 mL of trichloroacetic acid (5% w/w) Separation of the phases followed, with measurement of the supernatants at 280 nm at room temperature. IC50 values were determined.

[2] = system: carrageenan-induced rat paw edema; set-up: method as in PMID 7714750; settings: dose 0.44 mmol/kg; cited from earlier work
[3] = system: carrageenan-induced rat paw edema; experiment: Inhibition of rat paw edema induced by carrageenan; format: in vivo, Fischer 344 rats; settings: Rattus norvegicus, ip; 0.01 mmol/kg body weight, intraperitoneally, 3.5 h; read-out: CPE % inhibition of rat paw edema induced by carrageenan
Method: The pyrrolyl derivatives, as well as their precursor chalcones were tested in vivo for the inhibition of rat paw edema induced by carrageenan. […] […]. For Compounds 2i, 2iii, 2iv and 2v, we determined their ED50 values. […]. The finding supports the primary idea of this design.
Edema was induced in the right hind paw of Fischer 344 rats (150–200 g). In the study, both males and females were included, with the exemption of pregnant females. The animals, which have been bred in our laboratory, were housed under standard conditions and received a diet of commercial food pellets and water ad libitum during maintenance. One hour before the onset of the experiment, food and water were removed. The tested compounds (dose 0.01 mmol/kg body weight) were diluted in water with a few drops of Tween 80, and they were administered intraperitoneally simultaneously with the intradermal injection of 0.1 mL 2% of carrageenan in water. The animals were euthanatized 3.5 h after the carrageenan administration. The difference between the weight of injected and uninjected paws was calculated for each animal and was compared to control animals, which were treated with water. Indomethacin was used as a reference compound in 0.01 mmol/kg. The results were expressed as the percent inhibition of the edema (CPE %).

[4] = biological target: T2, soybean lipoxygenase (Glycine max, UniProt P08170); experiment: Inhibition of soybean lipoxygenase (UV absorbance-based enzyme assay); format: biochemical; settings: pH 9.00, read-out: LOX IC50
T2 construct: purchased Sigma Chemical, Co. (St. Louis, MO, USA)
T2 sequence (P08170 1-839): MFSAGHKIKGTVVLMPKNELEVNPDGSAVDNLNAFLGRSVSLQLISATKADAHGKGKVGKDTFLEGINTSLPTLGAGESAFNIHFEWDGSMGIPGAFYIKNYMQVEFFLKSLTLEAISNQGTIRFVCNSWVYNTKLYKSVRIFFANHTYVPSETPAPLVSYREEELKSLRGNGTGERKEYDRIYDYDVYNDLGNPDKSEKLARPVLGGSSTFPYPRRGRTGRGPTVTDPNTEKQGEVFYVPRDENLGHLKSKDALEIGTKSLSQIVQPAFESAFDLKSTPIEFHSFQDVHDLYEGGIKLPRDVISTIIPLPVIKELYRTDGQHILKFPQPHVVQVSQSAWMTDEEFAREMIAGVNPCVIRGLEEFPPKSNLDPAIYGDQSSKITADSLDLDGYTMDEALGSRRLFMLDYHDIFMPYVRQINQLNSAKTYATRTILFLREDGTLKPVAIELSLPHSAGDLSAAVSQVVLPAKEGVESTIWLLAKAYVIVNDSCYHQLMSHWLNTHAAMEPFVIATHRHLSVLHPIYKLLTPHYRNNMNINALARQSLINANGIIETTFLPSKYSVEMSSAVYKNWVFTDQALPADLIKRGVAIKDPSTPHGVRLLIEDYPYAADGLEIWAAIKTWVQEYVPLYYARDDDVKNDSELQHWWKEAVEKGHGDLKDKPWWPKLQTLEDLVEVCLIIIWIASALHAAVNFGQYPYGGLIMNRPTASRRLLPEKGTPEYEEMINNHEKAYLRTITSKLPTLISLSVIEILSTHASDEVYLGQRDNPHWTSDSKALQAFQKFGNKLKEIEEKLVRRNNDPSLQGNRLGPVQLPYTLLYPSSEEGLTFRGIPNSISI
Method: Lipoxygenase catalyzes the first two steps in the metabolism of arachidonic acid to leukotrienes. LTB4 generation is important in the pathogenesis of neutrophil-mediated inflammatory diseases with a marked relation to the severity of cardiovascular diseases, asthma and cancer. We evaluated the synthesized pyrroles for their ability to inhibit soybean LOX by the UV absorbance-based enzyme assay. […] The inhibition of COX-2, as a peroxidase, was determined by a colorimetric assay with the oxidation of N,N,N′,N′-tetramethyl-p-phenylenediamine (TMPD).
The tested compounds were dissolved in DMSO, and the final concentration was 100 μΜ. The compounds were incubated at room temperature with sodium linoleate as a substrate (0.1 mL) in a buffer solution of Tris:HCl (pH 9.00) and 0.2 mL of a solution of soybean lipoxygenase.

[5] = Interaction with the stable free radical DPPH (reducing activity); settings: DPPH 50 μM
Method: 2,2-Diphenyl-1-picrylhydrazyl (DPPH) is a lipophilic, free, stable radical, which absorbs at 517 nm (violet color). Upon reduction, decolorization is observed that is stoichiometric to the number of received electrons and is representative of the antioxidant ability of compounds. […] This interaction, which indicates their radical scavenging ability in an iron-free system, was measured at 100 and 1000 μM after 20 and 60 min, whereas the final concentration of DPPH was stable at 50 μΜ.
[…] The absorbance was measured at 517 nm after 20 and 60 min at room temperature.

SMILES: O=C(O)c1ccccc1O [Salicylic acid, reference compound]
- IC50 [1]: 100 µM

SMILES: O=C(c1ccccc1)c1cc[nH]c1 [3-benzoylpyrrole]
- inhibition of carrageenan-induced rat paw edema [2]: 43%

SMILES: Cc1ccc(C(=O)c2ccc(CC(=O)O)n2C)cc1 [Tolmetin, reference compound]
- inhibition in vivo at 10 µmol/kg [3]: 76%
- IC50 [4]: 190 µM
- RA % (interaction with DPPH) ([5]; 100 μM compound, 20 min): 3%
- RA % (interaction with DPPH) ([5]; 100 μM compound, 60 min): 3%
- RA % (interaction with DPPH) ([5]; 1000 μM compound, 20 min): 4%
- RA % (interaction with DPPH) ([5]; 1000 μM compound, 60 min): 9%

SMILES: O=C(c1ccccc1)c1ccc[nH]1 [2-benzoylpyrrole]
- inhibition of carrageenan-induced rat paw edema [2]: 34%
